In patent US4200628A, “Novel aminoglycoside derivatives” (Shionogi & Co., Ltd., priority 1977, dated 1980):
Converted amounts (≈) assume the structure as drawn.

Key:
Assay in all cases: MIC, antimicrobial activity
Type in all cases: cell-based
[1] = test system: Pseudomonas aeriginosa TB-151; conditions: for Minimum Inhibitory Concentration (MIC): Pseudomonas aeriginosa TB-151, tobramycin resistant strain; for MIC: Pseudomonas, TB151, read-out: Minimum Inhibitory Concentration (MIC), Pseudomonas aeriginosa TB-151, tobramycin resistant strain
[2] = test system: Pseudomonas aeruginosa TB-121; conditions: for Minimum Inhibitory Concentration (MIC): Pseudomonas aeruginosa TB-121, tobramycin resistant strain; for MIC: Pseudomonas aeruginosa, TB121, Pseudomonas aeruginosa TB-121, tobramycin resistant strain, read-out: Minimum Inhibitory Concentration (MIC)
Proteus vulgaris TB-615 = conditions: for Minimum Inhibitory Concentration (MIC): Proteus vulgaris TB-615, tobramycin resistant strain; for MIC: Proteus vulgaris, TB615, Proteus vulgaris TB-615, tobramycin resistant strain, read-out: Minimum Inhibitory Concentration (MIC)
[3] = test system: Staphylococcus epidermidis TB-775; conditions: for MIC: Staphylococcus epidermidis, TB775, Staphylococcus epidermidis TB-775, tobramycin resistant strain, read-out: Minimum Inhibitory Concentration (MIC); for Minimum Inhibitory Concentration (MIC): Staphylococcus epidermidis TB-775, tobramycin resistant strain

Row | SMILES | Minimum Inhibitory Concentration (MIC) [1] [µg/mL] | Minimum Inhibitory Concentration (MIC) [2] [µg/mL] | Minimum Inhibitory Concentration (MIC) (Proteus vulgaris TB-615) [µg/mL] | MIC [3] [µg/mL] | Minimum Inhibitory Concentration (MIC) [3] [µg/mL] | MIC [1] [µg/mL] | MIC [2] [µg/mL] | MIC (Proteus vulgaris TB-615) [µg/mL]
1 | NC[C@H]1O[C@H](O[C@H]2[C@H](O)[C@@H](O[C@H]3O[C@H](CO)[C@@H](O)[C@H](N)[C@H]3O)[C@H](NC(=O)C(O)C3CNCCN3)C[C@@H]2N)[C@H](N)C[C@@H]1O (single isomer, unassigned) [(8), 1-N-[2-hydroxy-2-(piperazin-2-yl)acetyl]tobramycin] | 6.2 | 6.2 | 12.5 | 25 (≈ 41 µM) |  |  |  | 
2 | NC[C@H]1O[C@H](O[C@H]2[C@H](O)[C@@H](O[C@H]3O[C@H](CO)[C@@H](O)[C@H](N)[C@H]3O)[C@H](NC(=O)C(O)C3CNCCN3)C[C@@H]2N)[C@H](N)C[C@@H]1O (single isomer, unassigned) [(9), 1-N-[2-hydroxy-2-(piperazin-2-yl)acetyl]tobramycin] | 25.0 | 12.5 | 50.0 |  | 50.0 |  |  | 
3 | NC[C@H]1O[C@H](O[C@H]2[C@H](O)[C@@H](O[C@H]3O[C@H](CO)[C@@H](O)[C@H](N)[C@H]3O)[C@H](NC(=O)C(O)C3CCNC3)C[C@@H]2N)[C@H](N)C[C@@H]1O (some centres unmarked) [(1), 1-N-[2-hydroxy-2-(pyrrolidin-3-yl)acetyl]tobramycin] |  |  |  | 6.2 (≈ 10.4 µM) |  | 6.2 (≈ 10.4 µM) | 6.2 (≈ 10.4 µM) | 12.5 (≈ 21 µM)
4 | NC[C@H]1O[C@H](O[C@H]2[C@H](O)[C@@H](O[C@H]3O[C@H](CO)[C@@H](O)[C@H](N)[C@H]3O)[C@H](NC(=O)C(O)C3CCN3)C[C@@H]2N)[C@H](N)C[C@@H]1O (some centres unmarked) [(2), 1-N-[2-hydroxy-2-(azetidin-2-yl)acetyl]tobramycin] |  |  |  | 100 (≈ 172 µM) |  | 12.5 (≈ 21.5 µM) | 12.5 (≈ 21.5 µM) | > 100
5 | NC[C@H]1O[C@H](O[C@H]2[C@H](O)[C@@H](O[C@H]3O[C@H](CO)[C@@H](O)[C@H](N)[C@H]3O)[C@H](NC(=O)C(O)C3CNC3)C[C@@H]2N)[C@H](N)C[C@@H]1O (some centres unmarked) [(3), 1-N-[2-hydroxy-2-(azetidin-3-yl)acetyl]tobramycin] |  |  |  | 6.2 (≈ 10.7 µM) |  | 3.1 (≈ 5.34 µM) | 3.1 (≈ 5.34 µM) | 12.5 (≈ 21.5 µM)
6 | NC[C@H]1O[C@H](O[C@H]2[C@H](O)[C@@H](O[C@H]3O[C@H](CO)[C@@H](O)[C@H](N)[C@H]3O)[C@H](NC(=O)C(O)C3CCCNC3)C[C@@H]2N)[C@H](N)C[C@@H]1O (some centres unmarked) [(4), 1-N-[2-hydroxy-2-(piperidin-3-yl)acetyl]tobramycin] |  |  |  | 25 (≈ 41.1 µM) |  | 25 (≈ 41.1 µM) | 25 (≈ 41.1 µM) | 25 (≈ 41.1 µM)
7 | NC[C@H]1O[C@H](O[C@H]2[C@H](O)[C@@H](O[C@H]3O[C@H](CO)[C@@H](O)[C@H](N)[C@H]3O)[C@H](NC(=O)C(O)C3CCCN3)C[C@@H]2N)[C@H](N)C[C@@H]1O (some centres unmarked) [(5), 1-N-[2-hydroxy-2-(pyrrolidin-2-yl)acetyl]tobramycin] | 100.0 | 25.0 | 100.0 | 100 (≈ 168 µM) |  |  |  | 
8 | NC[C@H]1O[C@H](O[C@H]2[C@H](O)[C@@H](O[C@H]3O[C@H](CO)[C@@H](O)[C@H](N)[C@H]3O)[C@H](NC(=O)C(O)C3CCCN3)C[C@@H]2N)[C@H](N)C[C@@H]1O (some centres unmarked) [(6), 1-N-[2-hydroxy-2-(pyrrolidin-2-yl)acetyl]tobramycin] | 12.5 | 6.2 | 25.0 |  | 50.0 |  |  | 
9 | NC[C@H]1O[C@H](O[C@H]2[C@H](O)[C@@H](O[C@H]3O[C@H](CO)[C@@H](O)[C@H](N)[C@H]3O)[C@H](NC(=O)C(O)C3CCCN3)C[C@@H]2N)[C@H](N)C[C@@H]1O (some centres unmarked) [(7), 1-N-[2-hydroxy-2-(pyrrolidin-2-yl)acetyl]tobramycin] | 50.0 | 100.0 | > 100.0 |  | > 100.0 |  |  | 
10 | NC[C@H]1O[C@H](O[C@H]2[C@H](O)[C@@H](O[C@H]3O[C@H](CO)[C@@H](O)[C@H](N)[C@H]3O)[C@H](N)C[C@@H]2N)[C@H](N)C[C@@H]1O [TOB, tobramycin, reference compound] |  |  |  |  |  | 100 (≈ 214 µM) |  | 25 (≈ 53.5 µM)
